Assay results from the OPERA property sets (Mansouri et al. 2018).

Conditions: not given

Structure (SMILES)	boiling point	melting point	log10 vapour pressure (mmHg)	log10 Koc (L/kg)	ready biodegradability	log10 biodegradation half-life (days)	logP	log10 Henry constant (atm·m³/mol)	log10 Koa
COc1ccccc1C=O	244 °C	37.5 °C	–	–	–	–	–	–	–
CCCCC/C=C\C/C=C\CCCCCCCC(=O)O	365 °C	-8.5 °C	-6.06	–	–	–	–	–	–
CN(C)c1ccc(N=Nc2ccccc2)cc1	–	117 °C	-7.15	3.87	–	–	–	–	–
CN(C)P(=O)(N(C)C)N(C)C	232 °C	7.2 °C	-1.34	–	not readily biodegradable	–	–	–	–
CCCCCCCCC	151 °C	-53.5 °C	0.648	–	readily biodegradable	0.954	–	–	–
CCNC(=O)OCC	176 °C	–	–	–	–	–	–	–	–
CC1(C)COC(C)(C)C1	121 °C	–	–	–	–	–	–	–	–
O=C(NCO)c1cccnc1	–	142 °C	–	–	–	–	–	–	–
Brc1cc(Br)c(Oc2cc(Br)c(Br)cc2Br)cc1Br	–	–	–	–	–	–	7.9	–	–
O=P([O-])([O-])O[C@@H]1[C@@H](O)[C@H](O)[C@@H](O)[C@H](O)[C@@H]1O	–	195 °C	–	–	–	–	–	–	–
Brc1ccoc1	103 °C	–	–	–	–	–	–	–	–
COc1ccc(OC)c(Cl)c1	–	–	–	–	not readily biodegradable	–	–	–	–
COCC(F)F	48.5 °C	–	2.48	–	–	–	–	–	–
COC(=O)CCCCl	175 °C	–	–	–	–	–	–	–	–
O=C(O)C=Cc1ccc(O)cc1	–	–	–	–	readily biodegradable	–	–	–	–
CC1=Nc2ccc(Cl)cc2S(=O)(=O)N1	–	330 °C	–	–	–	–	–	–	–
Nc1cccc(N)c1	285 °C	63.5 °C	-2.68	–	not readily biodegradable	–	–	–	–
CCCCCCCCCCCCCCCCCCCCCCCCCCCCCC(=O)O	–	93.6 °C	–	–	–	–	–	–	–
CON(C)C(=O)Nc1ccc(Cl)cc1	–	81.5 °C	-3.82	2.1	–	–	–	–	–
N#C/C=C(\Cl)C#N	172 °C	60.5 °C	–	–	–	–	–	–	–
CC(C)(C)c1ccncc1	196 °C	-41 °C	–	–	–	–	–	–	–
CCCN(C(C)=O)c1ccccc1	268 °C	49 °C	–	–	–	–	–	–	–
CCCCCCCCCCCCCCCCCCCCCCCCC	402 °C	54 °C	-5.82	–	readily biodegradable	2.08	–	–	–
CC(=O)c1cc(C)ccc1O	210 °C	50 °C	–	–	–	–	–	–	–
COC(=O)C(F)(F)C(F)(F)C(F)(F)C(F)(F)C(F)(F)C(F)(F)C(F)(F)F	158 °C	–	–	–	–	–	–	–	–

Structure (SMILES)	boiling point	melting point	log10 vapour pressure (mmHg)	log10 Koc (L/kg)	ready biodegradability	log10 biodegradation half-life (days)	logP	log10 Henry constant (atm·m³/mol)	log10 Koa
CCCCCCCC(=O)OCCCCCC	277 °C	-30.6 °C	–	–	–	–	–	–	–
CCC/C=C/C=O	146 °C	–	–	–	–	–	–	–	–
O=C(Nc1ccccc1)N(Cc1ccc(Cl)cc1)C1CCCC1	–	130 °C	-11.4	–	–	–	–	-11.3	–
N=C(N)N1CCc2ccccc2C1	–	279 °C	–	–	–	–	–	–	–
ClC(Br)C(Cl)Br (stereo unspecified)	195 °C	-26 °C	–	–	–	–	–	–	–
O=C(c1ccccc1)C(O)c1ccccc1 (racemic)	344 °C	137 °C	-5.28	–	–	–	–	–	–
CNC[C@H](O)[C@@H](O)[C@H](O)[C@H](O)CO	–	128 °C	–	–	–	–	–	–	–
C=COCC	35.5 °C	-116 °C	2.71	–	–	–	–	–	–
Clc1ccc(-c2cc(Cl)ccc2Cl)cc1	–	–	-3.4	–	–	–	–	-3.72	7.92
C1=CCC(c2ccccc2)CC1 (stereo unspecified)	–	–	–	–	readily biodegradable	–	–	–	–
Nc1cc(Cl)c(Cl)c(Cl)c1Cl	–	–	–	3.03	–	–	–	–	–
CCCCCOC=O	130 °C	-73.5 °C	–	–	–	–	–	–	–
O=C(O)c1ccc(O)c(O)c1	–	–	–	–	readily biodegradable	–	–	–	–
CCCCCOC(=O)COc1cc(N2C(=O)C3=C(CCCC3)C2=O)c(F)cc1Cl	–	89 °C	–	–	–	–	–	–	–
O=C(Cl)C=Cc1ccccc1	257 °C	36 °C	–	–	–	–	–	–	–
CC(CCl)CBr (stereo unspecified)	155 °C	–	–	–	–	–	–	–	–
O=CN1CCOCC1	239 °C	21 °C	–	–	–	–	–	–	–
Nc1ccccc1Br	229 °C	32 °C	–	–	–	–	–	–	–
O=c1c2cc(F)ccc2nc(-n2cncn2)n1-c1ccc(Cl)cc1Cl	–	192 °C	-10.3	–	–	–	–	-10.7	–
Cc1cc(Cl)c(Cl)cc1Cl	231 °C	82.4 °C	–	–	–	–	–	-2.82	–
Nc1nccnn1	–	176 °C	–	–	–	–	–	–	–
CCOC(=O)C(C(=O)OCC)=C(C)C	176 °C	–	–	–	–	–	–	–	–
O=[PH](O)c1ccccc1	–	84 °C	–	–	–	–	–	–	–
CCCCCCC(C)C	143 °C	-80.3 °C	0.793	–	–	0.699	–	–	–
Cc1cc(Br)ccc1O	235 °C	64.7 °C	–	–	–	–	–	–	–

Structure (SMILES)	boiling point	melting point	log10 vapour pressure (mmHg)	log10 Koc (L/kg)	ready biodegradability	log10 biodegradation half-life (days)	logP	log10 Henry constant (atm·m³/mol)	log10 Koa
CCCC(=O)c1c(C)cc(C)c(C2CC(=O)C(C(CC)=NOCC)=C(O)C2)c1C (stereo unspecified)	–	80.8 °C	-8.12	–	–	–	–	–	–
CC(Cl)CO (stereo unspecified)	134 °C	–	0.72	–	–	–	–	–	–
Brc1cc2c(cc1Br)Oc1ccccc1O2	–	158 °C	-5.92	–	–	–	–	–	–
NNC(=O)c1ccc(O)cc1	–	265 °C	–	–	–	–	–	–	–
Clc1cccc(Cl)c1Oc1ccccc1	–	–	-2.89	–	–	–	–	–	–
CCCOC(=O)c1cc(O)c(O)c(O)c1	–	130 °C	–	–	–	–	–	–	–
OCCCc1ccccc1	235 °C	–	-1.7	–	–	–	–	-6.69	–
NCCc1c[nH]c2ccc(O)cc12	–	168 °C	–	–	–	–	–	–	–
CN1CCNCC1	138 °C	-6 °C	–	–	–	–	–	–	–
CC1(C)[C@H](/C=C(\Cl)C(F)(F)F)[C@@H]1C(=O)O[C@H](C#N)c1cccc(Oc2ccccc2)c1	–	–	-8.47	5.26	–	–	–	–	–
c1ccc(-c2ccc3ccccc3n2)cc1	363 °C	86 °C	–	–	–	–	–	–	–
ClCc1ccc(Cl)c(Cl)c1	241 °C	37.5 °C	–	–	not readily biodegradable	–	–	–	–
OC1(c2ccccc2)CCCCC1	–	63.5 °C	–	–	–	–	–	–	–
CCS(=O)(=O)c1nc2ccccn2c1S(=O)(=O)NC(=O)Nc1nc(OC)cc(OC)n1	–	201 °C	–	–	–	–	–	–	–
COC(=O)C(C)C(C)=O (stereo unspecified)	177 °C	–	–	–	–	–	–	–	–
CNC(=S)S	–	–	–	–	not readily biodegradable	–	–	–	–
Cc1c(Cl)c(Cl)c(Cl)c(Cl)c1Cl	301 °C	225 °C	–	–	–	–	–	-3.11	–
COc1nc(C)nc(NC(=O)NS(=O)(=O)c2ccccc2Cl)n1	–	176 °C	-10.6	2.19	–	–	–	–	–
COc1ccccc1-c1ccccc1OC	308 °C	–	–	–	–	–	–	–	–
C=CCCC=C	59.4 °C	-141 °C	2.34	–	–	–	–	–	–
O=C(Oc1ccccc1)c1ccccc1C(=O)Oc1ccccc1	–	73 °C	–	–	–	–	–	–	–
Clc1cccc(-c2ccccc2)c1	284 °C	16 °C	-2.13	–	–	–	–	-3.21	6.82
CCCCCCI	181 °C	-74.2 °C	0.147	–	readily biodegradable	–	–	-1.55	–
N#CC(c1ccccc1)c1ccccc1	–	74.3 °C	–	–	not readily biodegradable	–	–	–	–
FC(F)(F)C1(F)OC1(F)F (stereo unspecified)	-27.4 °C	–	–	–	–	–	–	–	–

Structure (SMILES)	boiling point	melting point	log10 vapour pressure (mmHg)	log10 Koc (L/kg)	ready biodegradability	log10 biodegradation half-life (days)	logP	log10 Henry constant (atm·m³/mol)	log10 Koa
OCCCCCCCCO	–	63 °C	–	–	–	–	–	–	–
BrCCCCCCCBr	263 °C	41.7 °C	–	–	–	–	–	–	–
OCCBr	150 °C	–	–	–	–	–	–	–	–
C[N+](C)(C)OP(=O)([O-])OP(=O)(O)OC[C@H]1O[C@@H](n2ccc(N)nc2=O)[C@H](O)[C@@H]1O	–	–	–	–	readily biodegradable	–	–	–	–
O=C1CCC(c2ccccc2)CC1	–	79.5 °C	–	–	–	–	–	–	–
CC(=O)[C@@]1(O)[C@H](O)C[C@H]2[C@@H]3CCC4=CC(=O)CC[C@]4(C)[C@H]3CC[C@@]21C	–	225 °C	–	–	–	–	–	–	–
N#CC1CC2C=CC1C2 (stereo unspecified)	–	13 °C	–	–	–	–	–	–	–
CC1(C)CC(N)CC(C)(CN)C1 (stereo unspecified)	247 °C	10 °C	-1.82	–	not readily biodegradable	–	–	–	–
CC(C)C1=CC[C@H]2C(=C1)CC[C@@H]1[C@]2(C)CCC[C@@]1(C)C(=O)O	–	150 °C	–	–	–	–	–	–	–
O=Cc1ccc(O)c(O)c1O	–	160 °C	–	–	–	–	–	–	–
CC(O)c1ccco1 (stereo unspecified)	162 °C	–	–	–	–	–	–	–	–
CCC(N)Cc1c[nH]c2ccccc12 (stereo unspecified)	–	97 °C	–	–	–	–	–	–	–
Cc1ccnc(C)c1C	192 °C	–	–	–	–	–	–	–	–
N#CCc1ccccc1C(F)(F)F	–	33 °C	–	–	–	–	–	–	–
Cc1ccccc1C(=O)Cl	214 °C	–	–	–	–	–	–	–	–
OCCCc1ccccn1	260 °C	34 °C	–	–	–	–	–	–	–
C#CC(C)N(C(=O)CCl)c1ccccc1 (stereo unspecified)	–	43.5 °C	–	–	–	–	–	–	–
CP(=O)(O)CCC(N)C(=O)O (stereo unspecified)	–	–	–	2.63	readily biodegradable	–	–	–	–
c1cncc([C@@H]2CCCN2)c1	270 °C	–	–	–	not readily biodegradable	–	–	–	–
CNC(=O)c1ccccc1	291 °C	82 °C	–	1.68	–	–	–	–	–
O=C(NNc1ccccc1)NNc1ccccc1	–	170 °C	–	–	–	–	–	–	–
COc1ccc(F)cc1	157 °C	-45 °C	–	–	–	–	–	–	–
Cc1cccc(C(C)c2ccccc2)c1C (stereo unspecified)	–	–	–	–	not readily biodegradable	–	–	–	–
CCC(Br)C(C)Br (stereo unspecified)	178 °C	-56 °C	–	–	–	–	–	–	–

Same assay, conditions: fish

Structure (SMILES)	log10 BCF	log10 biotransformation half-life (days)
CN(C)P(=O)(N(C)C)N(C)C	-0.3	–
CCCCCCCCC	–	0.97
CCCCc1ccc2cc(C)c(C)cc2c1	–	0.24
Brc1cc(Br)c(Oc2cc(Br)c(Br)cc2Br)cc1Br	6.13	–
Nc1cccc(N)c1	0.81	–
CON(C)C(=O)Nc1ccc(Cl)cc1	1.15	–
Clc1ccc(-c2cc(Cl)ccc2Cl)cc1	4.13	1.91
Nc1cc(Cl)c(Cl)c(Cl)c1Cl	2.21	–
Cc1cc(Cl)c(Cl)cc1Cl	3.87	2.01
O=[PH](O)c1ccccc1	0.78	–
Cc1c(Cl)c(Cl)c(Cl)c(Cl)c1Cl	3.83	–
